Values after ≈ are worked out from the molar mass of the structure shown.

Test [1] relates to A. baumannii strain 5075 (AB5075). Put plainly: Broth microdilution MIC determination of compound alone. The note with it: Acinetobacter baumannii; compound alone; AB5075; read-out: MIC. The test is classed as cell-based. The protocol:
Our initial screening began by testing a diverse selection of 2-AI compounds from our internal library for their minimal inhibitory concentrations (MIC) against A. baumannii isolate 5075.
Day Cultures (6 h) were subcultured to 5×10^5 CFU/mL in cation adjusted Mueller-Hinton broth (CAMHB). Aliquots (1 mL) were placed in culture tubes, and compound was added from 100 mM stock solutions, such that the compound concentration equaled the highest concentration tested (200 μM or 64 μg/mL). Samples were then aliquoted (200 μL) into the first row of wells of a 96-well plate, with all remaining wells being filled with 100 μL of initial bacterial subculture. The wells in row one were mixed five times before 100 μL was transferred to the following row (row two). Row two was then mixed five times, and 100 μL was transferred to row three. This processed was repeated until the final row had been mixed. This process provided a serial dilution of the compound. Plates were covered with Glad Press n'Seal and were incubated under stationary conditions at 37° C. for 16 hours. MIC values were recorded as the lowest concentration at which no bacterial growth was observed.

Test [2] has the same test system. Put plainly: Macrolide sensitization / antibiotic resensitization: antibiotic MIC in presence of compound (broth microdilution). The test is classed as cell-based, Acinetobacter baumannii. Conditions: AB5075; for MIC (μg/mL) of the antibiotic / MIC: antibiotic alone, no compound (control row); for MIC: Acinetobacter baumannii, read-out: MIC (μg/mL) of the antibiotic. As for the experimental part: A. baumannii 5075 was plated on LB agar, then grown in CAMHB for 6-8 h and this culture was used to inoculate fresh CAMHB (5×10^5 CFU/mL). The resulting suspension was aliquoted (5 mL) into culture tubes and compound, from 100 mM DMSO stock, was added. One aliquot was not treated (control). 1 mL of each sample was transferred to a new culture tube and antibiotic was added. Rows 2-12 of a 96-well microtiter plate were filled with 100 μL/well from the remaining 4 mL bacterial subcultures, allowing the concentration of compound to be kept uniform throughout the antibiotic dilution procedure. Samples containing antibiotic were aliquoted (200 μL) into the corresponding first row wells of the microtiter plate. Row 1 wells were mixed 6 to 8 times then 100 μL was withdrawn and transferred to row 2. Row 2 wells were mixed 6 to 8 times, followed by a 100 μL transfer from row 2 to row 3. This procedure was repeated to serially dilute the rest of the rows of the microtiter plate, with the exception of the final row, to which no antibiotic was added (to check for growth of bacteria in the presence of compound alone). The microtiter plate was then covered, placed in a covered damp plastic container and incubated under stationary conditions at 37° C. After 16-18 hrs minimum inhibitory concentration (MIC) values were recorded as the lowest concentration of antibiotic at which there was no visible growth of bacteria. Experiments were carried out in duplicate each time and repeated at least twice.
The difference in antibiotic MIC between the control (no compound) sample, and the samples containing each compound was recorded as the fold-reduction.
Day Cultures (6 h) were subcultured to 5×10^5 CFU/mL in cation adjusted Mueller-Hinton broth (CAMHB). […] One milliliter of the resulting solution was aliquoted into a separate culture tube and was dosed with antibiotic so that the resulting concentration was the highest desirable concentration to be tested. Bacteria treated with antibiotic alone were used as a control. Row one of a 96-well plate was filled with 200 μL of the antibiotic/compound solution, and the remaining rows were filled with 100 μL of the remaining 4 mL bacterial subculture. The wells in row one were mixed five times before 100 μL was transferred to the following row (row two). Row two was then mixed five times, and 100 μL was transferred to row three. This process was repeated until the second to last row had been reached. The last row is left unexposed to antibiotic in order to serve as a negative control. The antibiotic only treated bacteria was plated by aliquoting 200 μL of the treated bacteria into row one and filling the remaining rows with untreated bacteria from the original bacteria subculture. The rows were mixed in the same way as described above. Plates were covered with Glad Press n'Seal and were incubated under stationary conditions at 37° C. for 16 hours. MIC values were recorded as the lowest concentration at which no bacterial growth was observed. Fold reductions were determined by comparison of the compound treated wells with the antibiotic only treated control wells.
For orientation: Dilution methods test growth across graded concentrations, often in twofold steps.

Where [3] appears, read: compound at 30 μM vs antibiotic alone.
The mark [4] stands for this setting: in presence of compound at 30 μM.
Where [5] appears, read: compound at 60 μM vs antibiotic alone.

For `CCCCCCc1ccc(-c2c[nH]c(N)n2)cc1`, the MIC in test [1] was found to be 100 µM (≈ 24.3 µg/mL).

Consider `Nc1nc(CCCNC(=O)c2cc(Br)c(Br)[nH]2)c[nH]1`, for which the MIC in test [1] is over 200 µM.

With `CCCCCCC(CCCCCC)NC(=O)CCCc1c[nH]c(N)n1`, the MIC in test [1] amounted to 100 µM (≈ 35.1 µg/mL).

Regarding `CCCCCCC(=O)Nc1ccc2[nH]c(N)nc2c1`, in test [1], the MIC was over 200 µM.

On to `Nc1nc2cc(NC(=O)c3c(F)c(F)c(F)c(F)c3F)ccc2[nH]1`, for which the MIC in test [1] was over 200 µM.

As for `Cc1ccc(C(=O)Nc2ccc3[nH]c(N)nc3c2)cc1`, the MIC in test [1] is over 200 µM.

Consider `C/C(=C\c1ccccc1)CNC(=O)Cn1cc(CCCCCc2c[nH]c(N)n2)nn1`, for which, in test [1], the MIC is over 200 µM.

For the compound `CCCCCCCCCC(=O)NCCn1cc(CCCCCc2c[nH]c(N)n2)nn1`, the MIC in test [1] was over 200 µM.

With `Nc1nc(CCCCCc2cn(-c3ccc(C(=O)NCCc4ccccc4)cc3)nn2)c[nH]1`, the MIC in test [1] is over 200 µM.

For `CCCCCCC/C=C\CCCCCCCc1c[nH]c(N)n1`, in test [1], the MIC was over 200 µM.

Take `CC1(C)CC(=O)N(c2ccc3[nH]c(N)nc3c2)C(=O)C1`: the MIC in test [1] is over 200 µM.

For `CCCCCCc1ccc(-c2nc(N)[nH]c2CCCCCC)cc1`, the MIC in test [1] was over 200 µM.

As to `CCCCCCCCn1cc(Cc2ccccc2)nc1N`, in test [1], the MIC was over 200 µM.

As to `CCOc1ccc(Cn2c(CCCCCc3cn(CCNC(=O)c4ccc(C)cc4)nn3)cnc2N)cc1OCC`, the MIC in test [1] stood at 100 µM (≈ 56 µg/mL).

Regarding `NCC[C@H](O)C(=O)N[C@@H]1C[C@H](N)[C@@H](O[C@H]2O[C@H](CN)[C@@H](O)[C@H](O)[C@H]2O)[C@H](O)[C@H]1O[C@H]1O[C@H](CO)[C@@H](O)[C@H](N)[C@H]1O` [Amikacin, reference compound], the “MIC (μg/mL) of the antibiotic” value in test [2] was 128 µg/mL.

For the compound `Cl.Nc1nc(-c2ccc(NC(=O)/C=C/c3ccccc3)cc2)c[nH]1` [Compound 2], in test [2] (setting [3]), the “Fold reduction (azithromycin MIC)” value stood at 4 fold, the “Fold reduction (clarithromycin MIC)” value is given as 32 fold and the “Fold reduction (erythromycin MIC)” value came to 8 fold. For the same compound, the “Azithromycin MIC” value in test [2] (setting [4]) came to 16 µg/mL. Further, the MIC in test [1] came to 100 µM.

Consider `CCCCCC(=O)Nc1ccc(-c2c[nH]c(N)n2)cc1.Cl` [Compound 3], for which, in test [2] (setting [5]), the “Fold reduction (azithromycin MIC)” value came out at 8 fold, the “Fold reduction (clarithromycin MIC)” value turned out to be 32 fold and the “Fold reduction (erythromycin MIC)” value turned out to be 16 fold. Moreover, in test [2] (in presence of compound at 60 μM), the “Azithromycin MIC” value was 8 µg/mL. The MIC in test [1] was over 200 µM.

As for `CCCCCCCCCCCNC(=O)CCCc1c[nH]c(C)n1.Cl` [Compound 5], in test [2] (setting [3]), the “Fold reduction (azithromycin MIC)” value is 8 fold, the “Fold reduction (clarithromycin MIC)” value worked out at 256 fold and the “Fold reduction (erythromycin MIC)” value stood at 16 fold. The “Azithromycin MIC” value in test [2] (setting [4]) is 8 µg/mL. In addition, the MIC in test [1] is 100 µM.

Regarding `CCCCCCCCCCNC(=O)Cn1cc(CCCCCc2c[nH]c(N)n2)nn1.Cl` [Compound 6], the “Fold reduction (erythromycin MIC)” value in test [2] (setting [5]) was 4 fold. Besides, the MIC in test [1] is over 200 µM.

For `CCCCCc1ccc(C(=O)NCCn2cc(CCCCCc3cnc(N)n3Cc3ccc(CCCC)cc3)nn2)cc1` [Compound 7], in test [2] (setting [5]), the “Fold reduction (erythromycin MIC)” value came out at 4 fold. The MIC in test [1] stood at 200 µM (≈ 117 µg/mL).

Consider `Nc1nc(-c2ccc(NC(=O)c3cc(F)c(F)c(F)c3)cc2)c[nH]1` [Compound 8], for which, in test [2] (setting [3]), the “Fold reduction (clarithromycin MIC)” value came out at 32 fold and the “Fold reduction (erythromycin MIC)” value is listed as 8 fold. Also, in test [1], the MIC stood at 100 µM (≈ 33.2 µg/mL).

As to `Nc1nc(-c2ccc(NC(=O)c3ccc(Cl)c(Cl)c3)cc2)c[nH]1` [Compound 9], in test [2] (setting [3]), the “Fold reduction (clarithromycin MIC)” value is reported as 64 fold and the “Fold reduction (erythromycin MIC)” value amounted to 16 fold. Also, the MIC in test [1] is 100 µM (≈ 34.7 µg/mL).

For the compound `CCCCCCC(=O)Nc1cccc(-c2c[nH]c(N)n2)c1.Cl` [Compound 11], in test [2] (setting [5]), the “Fold reduction (erythromycin MIC)” value was 4 fold. In addition, in test [1], the MIC is over 200 µM.

As for `CCCCCCCCCCn1c(CCCCCC)cnc1N.Cl` [Compound 12], the “Fold reduction (erythromycin MIC)” value in test [2] (setting [5]) came to 4 fold. For the same compound, the MIC in test [1] was 100 µM.

For `Nc1nc(-c2ccc(NC(=O)c3ccccc3F)cc2)c[nH]1` [Compound 22], the MIC in test [1] is over 200 µM.

Take `Nc1nc(-c2ccc(NC(=O)c3ccc(C(F)(F)F)cc3)cc2)c[nH]1` [Compound 23]: the MIC in test [1] came to 50 µM (≈ 17.3 µg/mL).

For `Nc1nc(-c2ccc(NC(=O)c3ccc(C(F)(F)F)c(F)c3)cc2)c[nH]1` [Compound 24], the MIC in test [1] is 25 µM (≈ 9.11 µg/mL).

Regarding `CCCCCCCCCC(=O)N[C@@H](Cc1c[nH]c2ccccc12)C(=O)N[C@H](CC(N)=O)C(=O)N[C@@H](CC(=O)O)C(=O)N[C@@H]1C(=O)NCC(=O)N[C@@H](CCCN)C(=O)N[C@@H](CC(=O)O)C(=O)N[C@H](C)C(=O)N[C@@H](CC(=O)O)C(=O)NCC(=O)N[C@H](CO)C(=O)N[C@@H]([C@H](C)CC(=O)O)C(=O)N[C@@H](CC(=O)c2ccccc2N)C(=O)O[C@@H]1C` [Daptomycin, reference compound], the MIC in test [2] came out at 2050 µg/mL.

With `CO[C@@H]1[C@@H](O[C@@H]2O[C@H](C)[C@@H](O[C@H]3C[C@@](C)(O)[C@@H](OC(=O)CC(C)C)[C@H](C)O3)[C@H](N(C)C)[C@H]2O)[C@@H](CC=O)C[C@@H](C)[C@@H](O)/C=C/C=C/C[C@@H](C)OC(=O)C[C@H]1OC(C)=O` [Josamycin, josamycin, reference compound], the “MIC (μg/mL) of the antibiotic” value in test [2] was found to be 128 µg/mL.

`NC[C@H]1O[C@H](O[C@H]2[C@H](O)[C@@H](O[C@H]3O[C@H](CO)[C@@H](O)[C@H](N)[C@H]3O)[C@H](N)C[C@@H]2N)[C@H](O)[C@@H](O)[C@@H]1O` [Kanamycin, reference compound]: in test [2], the MIC is over 512 µg/mL.

For the compound `CC(=O)NC[C@H]1CN(c2ccc(N3CCOCC3)c(F)c2)C(=O)O1` [Linezolid, linezolid, reference compound], in test [2], the MIC amounted to 256 µg/mL.

For `CO[C@H]1C[C@H](O[C@H]2[C@H](C)[C@@H](O[C@@H]3O[C@H](C)C[C@H](N(C)C)[C@H]3O)[C@@H](C)C[C@@]3(CO3)C(=O)[C@H](C)[C@@H](O)[C@@H](C)[C@@H](C)OC(=O)[C@@H]2C)O[C@@H](C)[C@@H]1O` [Oleandomycin, oleandomycin, reference compound], the “MIC (μg/mL) of the antibiotic” value in test [2] worked out at 256 µg/mL.

Regarding `[H]/N=C(/N)N[C@H]1[C@H](O)[C@@H](O)[C@H](O[C@@H]2O[C@@H](C)[C@](O)(C=O)[C@H]2O[C@@H]2O[C@@H](CO)[C@H](O)[C@@H](O)[C@@H]2NC)[C@@H](N/C(N)=N\[H])[C@@H]1O` [Streptomycin, reference compound], the MIC in test [2] is over 512 µg/mL.

As to `NC[C@H]1O[C@H](O[C@H]2[C@H](O)[C@@H](O[C@H]3O[C@H](CO)[C@@H](O)[C@H](N)[C@H]3O)[C@H](N)C[C@@H]2N)[C@H](N)C[C@@H]1O` [Tobramycin, reference compound], the MIC in test [2] is 256 µg/mL.

On to `CO[C@H]1C[C@H](O[C@H]2[C@H](C)[C@@H](O[C@@H]3O[C@H](C)C[C@H](N(C)C)[C@H]3OC(C)=O)[C@@H](C)C[C@@]3(CO3)C(=O)[C@H](C)[C@@H](OC(C)=O)[C@@H](C)[C@@H](C)OC(=O)[C@@H]2C)O[C@@H](C)[C@@H]1OC(C)=O` [Troleandomycin, troleandomycin, reference compound], for which, in test [2], the MIC was over 512 µg/mL.

Take Gentamicin [reference compound]: the “MIC (μg/mL) of the antibiotic” value in test [2] is over 512 µg/mL.

For the compound Neomycin [reference compound], in test [2], the “MIC (μg/mL) of the antibiotic” value is 64 µg/mL.

On to colistin [reference compound], for which the “MIC (μg/mL) of the antibiotic” value in test [2] is 0.5 µg/mL.

As for spiramycin [reference compound], in test [2], the “MIC (μg/mL) of the antibiotic” value was over 512 µg/mL.

The record behind these values is US20210283107A1, “Methods to Expand the Spectrum of Gram-Positive Antibiotics” (NORTH CAROLINA STATE UNIVERSITY, priority 2016, published 2021).
